From ChEMBL document CHEMBL1134713, “Synthesis of a novel series of cytotoxic bisindole alkaloids” (Bioorg Med Chem Lett, 2001)

Key:
L1210 [1] = test: Compound was evaluated for the percent stimulation of cell proliferation at a concentration of 10 uM; type: functional, Mus musculus
L1210 [2] = test: Cytotoxicity against L1210 cell proliferation, measured using microculture tetrazolium assay (MTA); type: functional, cell-based, Mus musculus
L1210 [3] = test: Evaluated for the dose-dependent accumulation and percent of cells in G1 phase was determined at a concentration of 50 uM; type: functional, Mus musculus
L1210 [4] = test: Evaluated for the dose-dependent accumulation and percent of cells in G1 phase was determined at a concentration of 10 uM; type: functional, Mus musculus
L1210 [5] = test: Evaluated for the dose-dependent accumulation and percent of cells in G1 phase was determined at a concentration of 25 uM; type: functional, Mus musculus
L1210 [6] = test: Evaluated for the dose-dependent accumulation and percent of cells in G1 phase was determined at a concentration of 5 uM; type: functional, Mus musculus
L1210 [7] = test: Evaluated for the dose-dependent accumulation and percent of cells in G1 phase was determined at a concentration of 20 uM; type: functional, Mus musculus

CCOC(=O)c1ccc(NC2c3cc(C(=O)OCC)ccc3NC(Cc3c4n(c5ccccc35)[C@H]3N(O)CCC[C@@]3(CC)C=C4C(=O)OC)C2c2c3n(c4ccccc24)[C@H]2N(O)CCC[C@@]2(CC)C=C3C(=O)OC)cc1 (some centres not stated)
Stimulation (L1210 [1]): 118% | IC50 (L1210 [2]; Mus musculus, L1210): > 10 µM

CC[C@]12C=C(C(=O)OC)c3c(CC4Nc5ccccc5CC4c4c5n(c6ccccc46)[C@H]4N(O)CCC[C@@]4(CC)C=C5C(=O)OC)c4ccccc4n3[C@H]1N(O)CCC2 (stereo in doubt; 6)
Cells (L1210 [3]): 4.5% | IC50 (L1210 [2]; l1210): 71 µM

CC[C@]12C=C(C(=O)OC)c3c(CC4Nc5ccc(Cl)cc5CC4c4c5n(c6ccccc46)[C@H]4N(O)CCC[C@@]4(CC)C=C5C(=O)OC)c4ccccc4n3[C@H]1N(O)CCC2 (some centres not stated)
Cells (L1210 [4]): 77% | IC50 (L1210 [2]; Mus musculus, L1210): 3.6 µM

CC[C@]12C=C(C(=O)OC)c3c(CC4Nc5ccccc5CC4c4c5n(c6ccccc46)[C@H]4N(O)CCC[C@@]4(CC)C=C5C(=O)OC)c4ccccc4n3[C@H]1N(O)CCC2 (stereo in doubt; 1)
IC50 (L1210 [2]; l1210): 2.7 µM | Cells (L1210 [5]): 80%

CC[C@]12C=C(C(=O)OC)c3c(CCNc4ccc(F)cc4)c4ccccc4n3[C@H]1N(O)CCC2
IC50 (L1210 [2]; Mus musculus, L1210): 15.4 µM

CC[C@]12C=C(C(=O)OC)c3c(CC4Nc5c(F)cccc5C(Nc5ccccc5F)C4c4c5n(c6ccccc46)[C@H]4N(O)CCC[C@@]4(CC)C=C5C(=O)OC)c4ccccc4n3[C@H]1N(O)CCC2 (some centres not stated)
IC50 (L1210 [2]; Mus musculus, L1210): 14.1 µM

CC[C@]12C=C(C(=O)OC)c3c(CC4Nc5cc(OC)c(OC)c(OC)c5CC4c4c5n(c6ccccc46)[C@H]4N(O)CCC[C@@]4(CC)C=C5C(=O)OC)c4ccccc4n3[C@H]1N(O)CCC2 (some centres not stated)
Cells (L1210 [6]): 61% | IC50 (L1210 [2]; Mus musculus, L1210): 2.4 µM

CC[C@]12C=C(C(=O)OC)c3c(CC4Nc5ccc(O)cc5C(OC)C4c4c5n(c6ccccc46)[C@H]4N(O)CCC[C@@]4(CC)C=C5C(=O)OC)c4ccccc4n3[C@H]1N(O)CCC2 (some centres not stated)
IC50 (L1210 [2]; Mus musculus, L1210): 0.9 µM

CC[C@]12C=C(C(=O)OC)c3c(CC4Nc5ccc(C(F)(F)F)cc5C(Nc5ccc(C(F)(F)F)cc5)C4c4c5n(c6ccccc46)[C@H]4N(O)CCC[C@@]4(CC)C=C5C(=O)OC)c4ccccc4n3[C@H]1N(O)CCC2 (some centres not stated)
Stimulation (L1210 [1]): 152% | IC50 (L1210 [2]; Mus musculus, L1210): > 10 µM

CC[C@]12C=C(C(=O)OC)c3c(CC4Nc5ccc(Cl)cc5C(Nc5ccc(Cl)cc5)C4c4c5n(c6ccccc46)[C@H]4N(O)CCC[C@@]4(CC)C=C5C(=O)OC)c4ccccc4n3[C@H]1N(O)CCC2 (some centres not stated)
Stimulation (L1210 [1]): 126% | IC50 (L1210 [2]; Mus musculus, L1210): > 10 µM

CC[C@]12C=C(C(=O)OC)c3c(CC4Nc5c(Cl)cccc5C(Nc5ccccc5Cl)C4c4c5n(c6ccccc46)[C@H]4N(O)CCC[C@@]4(CC)C=C5C(=O)OC)c4ccccc4n3[C@H]1N(O)CCC2 (some centres not stated)
IC50 (L1210 [2]; Mus musculus, L1210): > 10 µM

CC[C@]12C=C(C(=O)OC)c3c(CC4Nc5cc(Cl)cc(Cl)c5CC4c4c5n(c6ccccc46)[C@H]4N(O)CCC[C@@]4(CC)C=C5C(=O)OC)c4ccccc4n3[C@H]1N(O)CCC2 (some centres not stated)
IC50 (L1210 [2]; Mus musculus, L1210): > 10 µM

CC[C@]12C=C(C(=O)OC)c3c(CC4Nc5ccc(OC)cc5C(OC)C4c4c5n(c6ccccc46)[C@H]4N(O)CCC[C@@]4(CC)C=C5C(=O)OC)c4ccccc4n3[C@H]1N(O)CCC2 (some centres not stated)
IC50 (L1210 [2]; Mus musculus, L1210): 1.7 µM | Cells (L1210 [7]): 81%

CC[C@]12C=C(C(=O)OC)c3c(CC4Nc5ccc(F)cc5CC4c4c5n(c6ccccc46)[C@H]4N(O)CCC[C@@]4(CC)C=C5C(=O)OC)c4ccccc4n3[C@H]1N(O)CCC2 (some centres not stated)
Cells (L1210 [6]): 81% | IC50 (L1210 [2]; Mus musculus, L1210): 1.8 µM

CC[C@]12C=C(C(=O)OC)c3c(CC4Nc5cc(Cl)cc(Cl)c5C(Nc5cc(Cl)cc(Cl)c5)C4c4c5n(c6ccccc46)[C@H]4N(O)CCC[C@@]4(CC)C=C5C(=O)OC)c4ccccc4n3[C@H]1N(O)CCC2 (some centres not stated)
Stimulation (L1210 [1]): 156% | IC50 (L1210 [2]; Mus musculus, L1210): > 10 µM

CC[C@]12C=C(C(=O)OC)c3c(CC4Nc5ccc(OC)cc5CC4c4c5n(c6ccccc46)[C@H]4N(O)CCC[C@@]4(CC)C=C5C(=O)OC)c4ccccc4n3[C@H]1N(O)CCC2 (some centres not stated)
IC50 (L1210 [2]; Mus musculus, L1210): 2.2 µM | Cells (L1210 [7]): 69%
